What was measured:
Assay in all cases: relative viability (nuclei count vs DMSO), 5 days (fraction); higher = more cells survive
NCI-H2342 = test system: NCI-H2342
Outline: (§1)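 Values are medians from duplicate plates. Each reflects relative viability, defined as the nuclei count of treated wells over that of vehicle wells. Lung cancer cell lines in 1536-well plates were pin-tool dosed one day after seeding with one drug alone or with a fixed anchor-drug dose plus five library-drug doses (not always all listed) in √10 steps, then fixed, stained and imaged at 4× after 5 days.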

NCI-H1648 = test system: NCI-H1648
Outline: as §1

NCI-H1623 = test system: NCI-H1623
Outline: as §1

NCI-H1563 = test system: NCI-H1563
Outline: as §1

SW 900 = test system: SW 900
Outline: as §1

NCI-H522 = test system: NCI-H522
Outline: as §1

O=c1[nH]c2ccccc2n1C1CCN(CCCC(c2ccc(F)cc2)c2ccc(F)cc2)CC1 [Pimozide] + COc1cccc2cc(-c3nc([C@H]4CC[C@H](C(=O)O)CC4)n4ncnc(N)c34)[nH]c12 [OSI-027] (partner 0.5 µM)
relative viability (NCI-H2342; first compound 0.08 µM): 0.63
relative viability (NCI-H2342; first compound 0.253 µM): 0.623
relative viability (NCI-H2342; first compound 0.8 µM): 0.615
relative viability (NCI-H2342; first compound 2.53 µM): 0.543
relative viability (NCI-H2342; first compound 8 µM): 0.599
relative viability (NCI-H1648; first compound 0.08 µM): 0.275
relative viability (NCI-H1648; first compound 0.253 µM): 0.264
relative viability (NCI-H1648; first compound 0.8 µM): 0.272
relative viability (NCI-H1648; first compound 8 µM): 0.279
relative viability (NCI-H1623; first compound 0.08 µM): 0.348
relative viability (NCI-H1623; first compound 0.253 µM): 0.48
relative viability (NCI-H1623; first compound 0.8 µM): 0.374
relative viability (NCI-H1623; first compound 2.53 µM): 0.416
relative viability (NCI-H1623; first compound 8 µM): 0.389
relative viability (NCI-H1563; first compound 0.08 µM): 0.75
relative viability (NCI-H1563; first compound 0.253 µM): 0.767
relative viability (NCI-H1563; first compound 0.8 µM): 0.817
relative viability (NCI-H1563; first compound 2.53 µM): 0.664
relative viability (NCI-H1563; first compound 8 µM): 0.719
relative viability (SW 900; first compound 0.08 µM): 0.879
relative viability (SW 900; first compound 0.253 µM): 0.581
relative viability (SW 900; first compound 0.8 µM): 0.273
relative viability (SW 900; first compound 2.53 µM): 0.475
relative viability (SW 900; first compound 8 µM): 0.384
relative viability (NCI-H522; first compound 0.08 µM): 0.682
relative viability (NCI-H522; first compound 0.253 µM): 0.586
relative viability (NCI-H522; first compound 0.8 µM): 0.54
relative viability (NCI-H522; first compound 2.53 µM): 0.829
relative viability (NCI-H522; first compound 8 µM): 0.682

From the supplement of paper PMC10307832
